Assay results taken from PubChem BioAssay (NCI).
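96-well plates; 48 h exposure; 5 concentrations. Endpoints by linear interpolation between flanking doses. Not reached: highest tested concentration assigned. The concentration for 50% growth inhibition is given as GI50. The concentration for full growth arrest is given as TGI.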

tested on: OVCAR-3 ovarian; assay: NCI-60 cell line screen, 48 h

SMILES	TGI [µM]
O=C1NC(N2CCOCC2)=N/C1=C\c1ccco1	> 100

tested on: NCI-H460 lung; assay: NCI-60 cell line screen, 48 h

SMILES	TGI [µM]	GI50 [µM]
CN1C(=O)c2ccccc2NC(=O)C12O[C@@H]2c1ccccc1 (stereo partly drawn)	> 100	–
CC1(C)[C@@H]2CC[C@@]1(C)CN(CCC[N+](C)(C)C)C2	> 100	–
COc1cc(C(=O)N2CCN(C(=O)c3cc(OC)c(OC)c(OC)c3)C2=S)cc(OC)c1OC	73.6	27.2
O=C(CCn1ccnc1[N+](=O)[O-])NCCCn1ccnc1[N+](=O)[O-]	> 100	–
O=[N+]([O-])C(=C(Nc1ccccc1)Nc1ccccc1)C(Cl)=C(Cl)Cl	33	–

tested on: SR leukemia; assay: NCI-60 cell line screen, 48 h

SMILES	TGI [µM]
CN1C(=O)c2ccccc2NC(=O)C12O[C@@H]2c1ccccc1 (stereo partly drawn)	> 100
CC1(C)[C@@H]2CC[C@@]1(C)CN(CCC[N+](C)(C)C)C2	> 100
O=C(CCn1ccnc1[N+](=O)[O-])NCCCn1ccnc1[N+](=O)[O-]	> 100
O=C1NC(N2CCOCC2)=N/C1=C\c1ccco1	> 100

tested on: SK-OV-3 ovarian; assay: NCI-60 cell line screen, 48 h

SMILES	TGI [µM]	GI50 [µM]
CC1(C)[C@@H]2CC[C@@]1(C)CN(CCC[N+](C)(C)C)C2	> 100	–
COc1cc(C(=O)N2CCN(C(=O)c3cc(OC)c(OC)c(OC)c3)C2=S)cc(OC)c1OC	52.7	20.2
O=C(CCn1ccnc1[N+](=O)[O-])NCCCn1ccnc1[N+](=O)[O-]	> 100	–
O=[N+]([O-])C(=C(Nc1ccccc1)Nc1ccccc1)C(Cl)=C(Cl)Cl	68.5	–
O=C1NC(N2CCOCC2)=N/C1=C\c1ccco1	> 100	–

tested on: TK-10 renal; assay: NCI-60 cell line screen, 48 h

SMILES	TGI [µM]	GI50 [µM]
CN1C(=O)c2ccccc2NC(=O)C12O[C@@H]2c1ccccc1 (stereo partly drawn)	> 100	–
CC1(C)[C@@H]2CC[C@@]1(C)CN(CCC[N+](C)(C)C)C2	> 100	–
COc1cc(C(=O)N2CCN(C(=O)c3cc(OC)c(OC)c(OC)c3)C2=S)cc(OC)c1OC	37.3	17
O=C(CCn1ccnc1[N+](=O)[O-])NCCCn1ccnc1[N+](=O)[O-]	> 100	–
O=[N+]([O-])C(=C(Nc1ccccc1)Nc1ccccc1)C(Cl)=C(Cl)Cl	38	–
O=C1NC(N2CCOCC2)=N/C1=C\c1ccco1	> 100	–

tested on: SK-MEL-2 melanoma; assay: NCI-60 cell line screen, 48 h

SMILES	TGI [µM]	GI50 [µM]
CN1C(=O)c2ccccc2NC(=O)C12O[C@@H]2c1ccccc1 (stereo partly drawn)	> 100	–
CC1(C)[C@@H]2CC[C@@]1(C)CN(CCC[N+](C)(C)C)C2	> 100	–
COc1cc(C(=O)N2CCN(C(=O)c3cc(OC)c(OC)c(OC)c3)C2=S)cc(OC)c1OC	34.6	16.3
O=C(CCn1ccnc1[N+](=O)[O-])NCCCn1ccnc1[N+](=O)[O-]	> 100	–
O=[N+]([O-])C(=C(Nc1ccccc1)Nc1ccccc1)C(Cl)=C(Cl)Cl	28.3	–
O=C1NC(N2CCOCC2)=N/C1=C\c1ccco1	> 100	–

tested on: OVCAR-5 ovarian; assay: NCI-60 cell line screen, 48 h

SMILES	TGI [µM]	GI50 [µM]
CN1C(=O)c2ccccc2NC(=O)C12O[C@@H]2c1ccccc1 (stereo partly drawn)	> 100	–
CC1(C)[C@@H]2CC[C@@]1(C)CN(CCC[N+](C)(C)C)C2	> 100	–
COc1cc(C(=O)N2CCN(C(=O)c3cc(OC)c(OC)c(OC)c3)C2=S)cc(OC)c1OC	57.7	23.2
O=C(CCn1ccnc1[N+](=O)[O-])NCCCn1ccnc1[N+](=O)[O-]	> 100	–
O=[N+]([O-])C(=C(Nc1ccccc1)Nc1ccccc1)C(Cl)=C(Cl)Cl	41.8	–
O=C1NC(N2CCOCC2)=N/C1=C\c1ccco1	> 100	–

tested on: SW-620 colon; assay: NCI-60 cell line screen, 48 h

SMILES	TGI [µM]	GI50 [µM]
CN1C(=O)c2ccccc2NC(=O)C12O[C@@H]2c1ccccc1 (stereo partly drawn)	> 100	–
CC1(C)[C@@H]2CC[C@@]1(C)CN(CCC[N+](C)(C)C)C2	> 100	–
COc1cc(C(=O)N2CCN(C(=O)c3cc(OC)c(OC)c(OC)c3)C2=S)cc(OC)c1OC	46.5	20.3
O=C(CCn1ccnc1[N+](=O)[O-])NCCCn1ccnc1[N+](=O)[O-]	> 100	–
O=[N+]([O-])C(=C(Nc1ccccc1)Nc1ccccc1)C(Cl)=C(Cl)Cl	30.9	–
O=C1NC(N2CCOCC2)=N/C1=C\c1ccco1	> 100	–

tested on: UO-31 renal; assay: NCI-60 cell line screen, 48 h

SMILES	TGI [µM]
CN1C(=O)c2ccccc2NC(=O)C12O[C@@H]2c1ccccc1 (stereo partly drawn)	> 100
CC1(C)[C@@H]2CC[C@@]1(C)CN(CCC[N+](C)(C)C)C2	> 100
COc1cc(C(=O)N2CCN(C(=O)c3cc(OC)c(OC)c(OC)c3)C2=S)cc(OC)c1OC	12.8
O=C(CCn1ccnc1[N+](=O)[O-])NCCCn1ccnc1[N+](=O)[O-]	> 100
O=[N+]([O-])C(=C(Nc1ccccc1)Nc1ccccc1)C(Cl)=C(Cl)Cl	39.6
O=C1NC(N2CCOCC2)=N/C1=C\c1ccco1	> 100

tested on: U251 CNS; assay: NCI-60 cell line screen, 48 h

SMILES	TGI [µM]	GI50 [µM]
CN1C(=O)c2ccccc2NC(=O)C12O[C@@H]2c1ccccc1 (stereo partly drawn)	> 100	–
CC1(C)[C@@H]2CC[C@@]1(C)CN(CCC[N+](C)(C)C)C2	> 100	–
COc1cc(C(=O)N2CCN(C(=O)c3cc(OC)c(OC)c(OC)c3)C2=S)cc(OC)c1OC	34.4	16.3
O=C(CCn1ccnc1[N+](=O)[O-])NCCCn1ccnc1[N+](=O)[O-]	> 100	–
O=[N+]([O-])C(=C(Nc1ccccc1)Nc1ccccc1)C(Cl)=C(Cl)Cl	35.3	–
O=C1NC(N2CCOCC2)=N/C1=C\c1ccco1	> 100	–

tested on: NCI-H23 lung; assay: NCI-60 cell line screen, 48 h

SMILES	TGI [µM]	GI50 [µM]
CN1C(=O)c2ccccc2NC(=O)C12O[C@@H]2c1ccccc1 (stereo partly drawn)	> 100	–
CC1(C)[C@@H]2CC[C@@]1(C)CN(CCC[N+](C)(C)C)C2	> 100	–
COc1cc(C(=O)N2CCN(C(=O)c3cc(OC)c(OC)c(OC)c3)C2=S)cc(OC)c1OC	37.5	18.7
O=C(CCn1ccnc1[N+](=O)[O-])NCCCn1ccnc1[N+](=O)[O-]	> 100	–
O=[N+]([O-])C(=C(Nc1ccccc1)Nc1ccccc1)C(Cl)=C(Cl)Cl	30	–
O=C1NC(N2CCOCC2)=N/C1=C\c1ccco1	> 100	–

tested on: BT-549 breast; assay: NCI-60 cell line screen, 48 h

SMILES	TGI [µM]	GI50 [µM]
CN1C(=O)c2ccccc2NC(=O)C12O[C@@H]2c1ccccc1 (stereo partly drawn)	> 100	–
CC1(C)[C@@H]2CC[C@@]1(C)CN(CCC[N+](C)(C)C)C2	> 100	–
COc1cc(C(=O)N2CCN(C(=O)c3cc(OC)c(OC)c(OC)c3)C2=S)cc(OC)c1OC	34.1	17.4
O=C(CCn1ccnc1[N+](=O)[O-])NCCCn1ccnc1[N+](=O)[O-]	> 100	–
O=[N+]([O-])C(=C(Nc1ccccc1)Nc1ccccc1)C(Cl)=C(Cl)Cl	29.6	–
O=C1NC(N2CCOCC2)=N/C1=C\c1ccco1	> 100	–

tested on: A549 NSCLC; assay: NCI-60 cell line screen, 48 h

SMILES	TGI [µM]	GI50 [µM]
CN1C(=O)c2ccccc2NC(=O)C12O[C@@H]2c1ccccc1 (stereo partly drawn)	> 100	–
CC1(C)[C@@H]2CC[C@@]1(C)CN(CCC[N+](C)(C)C)C2	> 100	–
COc1cc(C(=O)N2CCN(C(=O)c3cc(OC)c(OC)c(OC)c3)C2=S)cc(OC)c1OC	56.7	19.9
O=C(CCn1ccnc1[N+](=O)[O-])NCCCn1ccnc1[N+](=O)[O-]	> 100	–
O=[N+]([O-])C(=C(Nc1ccccc1)Nc1ccccc1)C(Cl)=C(Cl)Cl	35.2	–
O=C1NC(N2CCOCC2)=N/C1=C\c1ccco1	> 100	–

tested on: HCC-2998 colon; assay: NCI-60 cell line screen, 48 h

SMILES	TGI [µM]	GI50 [µM]
CN1C(=O)c2ccccc2NC(=O)C12O[C@@H]2c1ccccc1 (stereo partly drawn)	> 100	–
CC1(C)[C@@H]2CC[C@@]1(C)CN(CCC[N+](C)(C)C)C2	> 100	–
COc1cc(C(=O)N2CCN(C(=O)c3cc(OC)c(OC)c(OC)c3)C2=S)cc(OC)c1OC	40	19
O=[N+]([O-])C(=C(Nc1ccccc1)Nc1ccccc1)C(Cl)=C(Cl)Cl	37.9	–
O=C1NC(N2CCOCC2)=N/C1=C\c1ccco1	> 100	–

tested on: MALME-3M melanoma; assay: NCI-60 cell line screen, 48 h

SMILES	TGI [µM]	GI50 [µM]
CN1C(=O)c2ccccc2NC(=O)C12O[C@@H]2c1ccccc1 (stereo partly drawn)	> 100	–
CC1(C)[C@@H]2CC[C@@]1(C)CN(CCC[N+](C)(C)C)C2	> 100	–
COc1cc(C(=O)N2CCN(C(=O)c3cc(OC)c(OC)c(OC)c3)C2=S)cc(OC)c1OC	27	13.4
O=C(CCn1ccnc1[N+](=O)[O-])NCCCn1ccnc1[N+](=O)[O-]	> 100	–
O=[N+]([O-])C(=C(Nc1ccccc1)Nc1ccccc1)C(Cl)=C(Cl)Cl	41.9	–

tested on: MDA-N; assay: NCI-60 cell line screen, 48 h

SMILES	TGI [µM]	GI50 [µM]
CN1C(=O)c2ccccc2NC(=O)C12O[C@@H]2c1ccccc1 (stereo partly drawn)	> 100	–
CC1(C)[C@@H]2CC[C@@]1(C)CN(CCC[N+](C)(C)C)C2	> 100	–
COc1cc(C(=O)N2CCN(C(=O)c3cc(OC)c(OC)c(OC)c3)C2=S)cc(OC)c1OC	33.9	15
O=C(CCn1ccnc1[N+](=O)[O-])NCCCn1ccnc1[N+](=O)[O-]	> 100	–
O=[N+]([O-])C(=C(Nc1ccccc1)Nc1ccccc1)C(Cl)=C(Cl)Cl	27.2	–
O=C1NC(N2CCOCC2)=N/C1=C\c1ccco1	> 100	–
